The values below come from ChEMBL document CHEMBL1667768, “Compounds containing 2-substituted imidazole ring for treatment against human African trypanosomiasis” (Bioorg Med Chem Lett, 2011).

In one data set the test system is L6. The experiment in a line: Cytotoxicity against rat L6 cells after 72 hrs by SRB assay. Particulars: L6, 72 h. The data set is classed as cell-based.
Data set [1] can be described thus: Aqueous solubility of the compound at pH 1.5 at 25 degC. The data set is classed as physicochemical.
A short description of data set [2]: Aqueous solubility of the compound at pH 7.5 at 25 degC. It is filed as physicochemical.
In data set [3] the test system is Trypanosoma brucei rhodesiense. The experiment in a line: Antimicrobial activity against Trypanosoma brucei rhodesiense after 48 hrs by proliferation assay. The data set is classed as functional, organism-based.

The structures appear in SMILES notation. ≈ marks a conversion by molar mass, not a printed value. Where only a bound is given, the exact number is not on record here.

A word on the IC50: it is the concentration that inhibits the measured activity by half. A lower IC50 goes with greater potency in that assay. By solubility is commonly meant how much of the substance goes into solution per volume. Read a high solubility as much dissolved substance. As to `Cc1cc(OCc2ncc([N+](=O)[O-])n2C)ccn1`, the IC50 in the data set on L6 was determined as 286 µM; in data set [3], 27 µM. Further, the solubility in data set [1] was found to be 4.3 µM (≈ 1.07 µg/mL); in data set [2], 2.2 µM (≈ 0.546 µg/mL).
For `CSc1ccc(OCc2nc(Cl)c([N+](=O)[O-])n2C)cc1` the same measures were 0.2 µM, 0.25 µM, 17.1 µM (≈ 5.37 µg/mL) and 5.9 µM (≈ 1.85 µg/mL).
On the same counts, the results for `CSc1ccc(OCc2nc(Br)c([N+](=O)[O-])n2C)cc1` are 0.8 µM, 0.55 µM, 16.7 µM (≈ 5.98 µg/mL) and 5.8 µM (≈ 2.08 µg/mL).
On the same counts, the results for `CSc1ccc(OCc2nc(S(=O)(=O)O)c([N+](=O)[O-])n2C)cc1` are 0.2 µM, 0.37 µM, 22.8 µM (≈ 8.19 µg/mL) and 7.9 µM (≈ 2.84 µg/mL).
Turning to `CSc1ccc(OCc2nc([N+](=O)[O-])cn2C)cc1`, the IC50 is greater than 400 µM in the data set with L6 and greater than 30 µM in data set [3]. Also, the results for the solubility in data set [1] and in data set [2] were 5.1 µM (≈ 1.42 µg/mL) and 2.5 µM (≈ 0.698 µg/mL), respectively.
`Cn1c([N+](=O)[O-])cnc1COc1ccccc1`: the values for the 50% inhibitory concentration (IC50) (with L6; in data set [3]) were greater than 400 µM and greater than 30 µM, respectively. The values for the solubility in data set [1] and in data set [2] were 5.7 µM (≈ 1.33 µg/mL) and 2.1 µM (≈ 0.49 µg/mL), respectively.
On the same counts, the results for `Cn1c([N+](=O)[O-])cnc1COc1ccncc1` are greater than 400 µM, greater than 30 µM, 4.8 µM (≈ 1.12 µg/mL) and 2.7 µM (≈ 0.632 µg/mL).
On the same counts, the results for `CCc1cc(OCc2ncc([N+](=O)[O-])n2C)ccn1` are 243 µM, 25 µM, 5.9 µM (≈ 1.55 µg/mL) and 3.1 µM (≈ 0.813 µg/mL).
Take `Cn1c([N+](=O)[O-])cnc1COc1ccnc(N2CCNCC2)c1`: the values for the concentration for half-maximal inhibition (IC50) (with L6; in data set [3]) were 255 µM and 0.67 µM, respectively. Besides, the solubility in data set [1] stood at 5.6 µM (≈ 1.78 µg/mL); in data set [2], 3.5 µM (≈ 1.11 µg/mL).
With `CSc1ccc(OCc2ncc(Cl)n2C)cc1`, the values for the IC50 (with L6; in data set [3]) were greater than 400 µM and greater than 30 µM, respectively. Moreover, the solubility in data set [1] was determined as 21 µM (≈ 5.64 µg/mL); in data set [2], 8.7 µM (≈ 2.34 µg/mL).
On the same counts, the results for `CSc1ccc(OCc2ncc(Br)n2C)cc1` are greater than 400 µM, greater than 30 µM, 18.5 µM (≈ 5.79 µg/mL) and 8.5 µM (≈ 2.66 µg/mL).
On the same counts, the results for `CSc1ccc(OCc2ncc(S(=O)(=O)O)n2C)cc1` are greater than 400 µM, greater than 30 µM, 25.4 µM (≈ 7.99 µg/mL) and 8.2 µM (≈ 2.58 µg/mL).
In the case of `CSc1ccc(OCc2nc(Cl)c(Cl)n2C)cc1`, the IC50 in the data set with L6 was greater than 400 µM; in data set [3], greater than 30 µM. Further, the solubility came out at 45.5 µM (≈ 13.8 µg/mL) in data set [1] and 25.5 µM (≈ 7.73 µg/mL) in data set [2].
Regarding `CSc1ccc(OCc2nc(Br)c(Cl)n2C)cc1`, the IC50 is greater than 400 µM with L6 and greater than 30 µM in data set [3]. Besides, the solubility is 37.5 µM (≈ 13 µg/mL) in data set [1] and 21.7 µM (≈ 7.54 µg/mL) in data set [2].
On the same counts, the results for `CSc1ccc(OCc2nc(Br)c(Br)n2C)cc1` are greater than 400 µM, greater than 30 µM, 41.2 µM (≈ 16.2 µg/mL) and 24.5 µM (≈ 9.61 µg/mL).
In the case of `CSc1ccc(OCc2nc(Cl)c(Br)n2C)cc1`, the half-maximal inhibitory concentration (IC50) with L6 was greater than 400 µM; in data set [3] it was greater than 30 µM. The solubility in data set [1] came out at 35.8 µM (≈ 12.4 µg/mL); in data set [2], 24.9 µM (≈ 8.66 µg/mL).
On to `CSc1ccc(OCc2ncc([N+](=O)[O-])n2C)cc1` [FEXINIDAZOLE], for which the concentration for half-maximal inhibition (IC50) with L6 was 377 µM; in data set [3], 0.7 µM. Further, the solubility is 5.5 µM (≈ 1.54 µg/mL) in data set [1] and 2.5 µM (≈ 0.698 µg/mL) in data set [2].
